Test results: US20190142800A1, “SYNERGISTIC ANTIFUNGAL COMPOSITIONS AND METHODS THEREOF” (VYOME THERAPEUTICS LIMITED, priority 2016, published 2019)

Experiments:
[1] = system: C. albicans (ATCC-90028); assay: Checkerboard assay on C. albicans (ATCC-90028); format: cell-based, Candida albicans
Experimental: (§1) The synergy is measured by determining the fractional inhibitory concentration (FIC) value of the combination. This experimental set up, called checkerboard method, allows measurement of a desired effect (inhibition of fungal growth in this case) at different combinations of various concentrations of the two agents (antifungal agent and fatty acid/ester). […] No agent is added to the penultimate column on the right and the bottom row. The final column on the right is used for growth control (only inoculum in broth) and sterility control (broth alone, no inoculum). […] FIC value for each agent in a particular well of the checkerboard layout was calculated by dividing the agent concentration in that well by the established MIC value of the agent against the test organism (Hsieh et al., Synergy assessed by checkerboard: A critical Analysis, Diagn. Microbiol. Infect Dis. (1993) 16:343-349). FIC values for both agents in a particular well were calculated in this way followed by determination of the FIC index (sum of the FICs of each drug in the concerned well). […] Agents Chemother. (2010) 54(2): 602-609].
(§2) Using the checkerboard layout experimental setup described above (FIG. 1A), various medium-chain fatty acids were tested for their ability to potentiate the activity of a known antifungal agent. Concentrations above and below the MIC of each test agent were tested using serial dilution. The same procedure was expanded to test combinations of various medium-chain fatty acids C-1 to C-14 (such caprylic acid, undecylenic acid and lauric acid) and esters thereof, with antifungal agents from various classes including azoles, allylamines, benzylamines, zinc pyrithione and piroctone olamine against both susceptible and resistant Trichophyton spp. (filamentous fungus) and Candida spp. (yeast).
(§3) Potentiation of the activity of antimycotic agents using ester derivatives of medium chain fatty acids was tested in a standard, well accepted in vitro assay system to check for synergy. This experimental set up, called checkerboard method, allows measurement of a desired effect (inhibition of fungal growth in this case) at different combinations of various concentrations of two agents. A chosen medium chain fatty acid (C-1 to C-14) or its ester derivative was tested for its ability to potentiate the activity of a known antifungal agent (various classes) using the checkerboard layout. Various concentrations above and below the MIC of each test agent were tested using serial dilution in Sabouraud dextrose broth. […] FIC value for a drug in a particular well of the checkerboard layout is calculated by dividing the drug concentration in that well by the established MIC value of the drug against the test organism (Hsieh et al., Synergy assessed by checkerboard: A critical Analysis, Diagn. Microbiol. Infect Dis. (1993) 16:343-349). FIC values for both test agents in a particular well are calculated in this way followed by determination of the FIC index (sum of the FICs of each drug in the concerned well).

[2] = system: azole resistant C. albicans MTCC 227; assay: Checkerboard assay on azole resistant C. albicans MTCC 227; format: cell-based, Candida albicans; settings: for MIC: Candida albicans, MTCC227, agent alone
Experimental: as §1, with “FIC” for “FIC value for each agent in a particular well of the checkerboard layout was calculated by dividing the agent concentration in that well by the established MIC value of the agent against the test organism (Hsieh et al., Synergy assessed by checkerboard: A critical Analysis, Diagn. Microbiol. Infect Dis. (1993) 16:343-349). FIC”, “Chemother.” for “Chemother. (2010) 54(2): 602-609].”
as §2
as §3, with “FIC” for “FIC value for a drug in a particular well of the checkerboard layout is calculated by dividing the drug concentration in that well by the established MIC value of the drug against the test organism (Hsieh et al., Synergy assessed by checkerboard: A critical Analysis, Diagn. Microbiol. Infect Dis. (1993) 16:343-349). FIC”

[3] = system: terbinafine resistant Trichophyton interdigitale (GTB-2S); assay: Checkerboard assay on terbinafine resistant Trichophyton interdigitale (GTB-2S); format: cell-based
Experimental: as §1, with “FIC” for “FIC value for each agent in a particular well of the checkerboard layout was calculated by dividing the agent concentration in that well by the established MIC value of the agent against the test organism (Hsieh et al., Synergy assessed by checkerboard: A critical Analysis, Diagn. Microbiol. Infect Dis. (1993) 16:343-349). FIC”, “Chemother.” for “Chemother. (2010) 54(2): 602-609].”
as §2
as §3, with “FIC” for “FIC value for a drug in a particular well of the checkerboard layout is calculated by dividing the drug concentration in that well by the established MIC value of the drug against the test organism (Hsieh et al., Synergy assessed by checkerboard: A critical Analysis, Diagn. Microbiol. Infect Dis. (1993) 16:343-349). FIC”

[4] = system: M. furfur (MTCC 1374); assay: Lipid assimilation in vitro assay: fatty acids/esters as nutrients for growth of M. furfur; format: cell-based, Malassezia furfur; settings: Sabouraud dextrose agar, after 6 days
Description: Malassezia species are lipophilic unipolar yeasts recognized as commensals of skin that may be pathogenic under certain conditions (Jindo et al 2004: Indian Journal of Medical Microbiology (22: 179). To compare lipid requirements of the fungus most closely associated with dandruff/seborrheic dermatitis, the best studied Malassezia species is M. furfur. Lipid assimilation in vitro assay was designed to investigate lipid effect on growth of M. furfur (MTCC 1374).
Briefly, Sabouraud Dextrose containing low-melt agar was melted, cooled to 38° C. Fatty acids/esters constituents eg, propylene glycol monocaprylate (C-8), capric acid (C-10), caprylic acid (C-8), linoleic acid (C-18), oleic acid (C-18), palmitic acid (C-16), ethyl oleate (C-18), and oils containing fatty acid/esters eg, coconut oil, mustard oil etc., were added to study the growth of the fungus (Kaw Bing CHUA, et al Malaysian J Pathol (2005) 27(2): 99). After solidification, agar plates were streaked with M. furfur innoculum adjusted to appropriate cfu/ml, aseptically. Positive control with 2% olive oil and negative control without fatty substance were also maintained.

[5] = system: C. albicans; assay: Checkerboard assay of clotrimazole and oleic acid (C18) in C. albicans; format: cell-based, Candida albicans; settings: clotrimazole + oleic acid, FIGS. 1B and 1C
Experimental: as §1

[6] = system: Trichophyton rubrum (ATCC-28188); assay: Checkerboard assay of fatty acid/ester with antifungals on Trichophyton rubrum (ATCC 28188); format: cell-based; parameters: key to FIC index: FIC index = sum of FICs; FIC = agent conc in well / agent MIC; settings: for MIC: Trichophyton rubrum, ATCC28188, agent alone
[7] = Table 9, caprylic acid (C8) series
[8] = agent's MIC in combination antifungal + caprylic acid (partner: other agent of same combination no.)
[9] = agent's MIC in combination antifungal + glyceryl monocaprylate (partner: other agent of same combination no.)
[10] = agent's MIC in combination antifungal + lauric acid (partner: other agent of same combination no.)
[11] = agent's MIC in combination antifungal + propylene glycol monolaurate (partner: other agent of same combination no.)
[12] = antifungal in combination with caprylic acid
[13] = antifungal in combination with glyceryl monocaprylate
[14] = antifungal in combination with lauric acid
[15] = antifungal in combination with propylene glycol monocaprylate
[16] = antifungal in combination with propylene glycol monolaurate
[17] = combination antifungal + caprylic acid
[18] = combination antifungal + glyceryl monocaprylate
[19] = combination antifungal + lauric acid
[20] = combination antifungal + propylene glycol monolaurate
[21] = antifungal in combination with undecylenic acid

`CCCCCCCC(=O)O` [Caprylic acid] was tested, and the MIC ([1]; Candida albicans, ATCC90028, agent alone, Table 8) was 125 µg/mL, the “Combination MIC” value ([1]; agent's MIC in combination luliconazole + caprylic acid) was 31.25 µg/mL and the FIC ([1]; combination luliconazole + caprylic acid) was 0.25. The MIC [2, 7] was 250 µg/mL, the MIC ([3]; Trichophyton interdigitale, agent alone, Table 7) was 15.6 µg/mL and the “Combination MIC” value ([3]; agent's MIC in combination terbinafine or butenafine + caprylic acid) was 7.812 µg/mL. For the same molecule, the FIC ([3]; combination terbinafine or butenafine + caprylic acid) was 0.5 and the “growth of M. furfur on culture media containing the fatty acid/ester or oil” value [4] was “no growth”.

`Clc1ccccc1C(c1ccccc1)(c1ccccc1)n1ccnc1` [Clotrimazole] was tested, and the “combination activity (interaction) with oleic acid (C18)” value [5] was “antagonistic effect”, the MIC ([6]; Table 1, caprylic acid series) was 0.6 µg/mL and the MIC ([6]; Table 2, propylene glycol monocaprylate series) was 0.6 µg/mL. It also gave an MIC ([6]; Table 3, glyceryl monocaprylate series) of 0.6 µg/mL, an MIC ([6]; Table 5, lauric acid (C12) series) of 0.5 µg/mL and an MIC ([6]; Table 6, propylene glycol monolaurate series) of 0.5 µg/mL. For the same molecule, the “Combination MIC” value [6, 8] was 0.075 µg/mL, the “Combination MIC” value [6, 9] was 0.075 µg/mL and the “Combination MIC” value [6, 10] was 0.125 µg/mL. The “Combination MIC” value [6, 11] was 0.125 µg/mL, the FIC index [6, 12] was 0.375 and the Interaction [6, 12] was “Synergistic (Combinations that gave FIC indices less than 1 were designated “synergistic”)”. The FIC index [6, 13] was 0.625, the Interaction [6, 13] was “Synergistic (Combinations that gave FIC indices less than 1 were designated “synergistic”)” and the FIC index [6, 14] was 0.75. For the same molecule, the Interaction [6, 14] was “Synergistic (Combinations that gave FIC indices less than 1 were designated “synergistic”)”, the Interaction [6, 15] was “Synergistic (Combinations that gave FIC indices less than 1 were designated “synergistic”)” and the FIC index [6, 16] was 0.5. The Interaction [6, 16] was “Synergistic (Combinations that gave FIC indices less than 1 were designated “synergistic”)”, the FIC [6, 17] was 0.125 and the FIC [6, 18] was 0.125. For the same molecule, the FIC [6, 19] was 0.25, the FIC [6, 20] was 0.25 and the MIC [2, 7] was 8 µg/mL. It also gave an MIC ([2]; Table 10, propylene glycol monocaprylate series) of 16 µg/mL, an MIC ([2]; Table 11, glyceryl monocaprylate series) of 16 µg/mL and an MIC ([2]; Table 12, undecylenic acid (C11) series) of 16 µg/mL. The MIC ([2]; Table 13, lauric acid (C12) series) was 8 µg/mL, the MIC ([2]; Table 14, propylene glycol monolaurate series) was 16 µg/mL and the “Combination MIC” value [2, 8] was 0.25 µg/mL. The “Combination MIC” value [2, 9] was 4 µg/mL, the “Combination MIC” value [2, 10] was 1 µg/mL and the “Combination MIC” value ([2]; agent's MIC in combination antifungal + propylene glycol monocaprylate (partner: other agent of same combination no.)) was 4 µg/mL. For the same molecule, the “Combination MIC” value [2, 11] was 8 µg/mL, the “Combination MIC” value ([2]; agent's MIC in combination antifungal + undecylenic acid (partner: other agent of same combination no.)) was 2 µg/mL and the FIC index [2, 12] was 0.093. The Interaction [2, 12] was “Synergistic (Combinations that gave FIC indices less than 1 were designated “synergistic”)”, the FIC index [2, 13] was 0.5 and the Interaction [2, 13] was “Synergistic (Combinations that gave FIC indices less than 1 were designated “synergistic”)”. The FIC index [2, 14] was 0.187, the Interaction [2, 14] was “Synergistic (Combinations that gave FIC indices less than 1 were designated “synergistic”)” and the FIC index [2, 15] was 0.312. For the same molecule, the Interaction [2, 15] was “Synergistic (Combinations that gave FIC indices less than 1 were designated “synergistic”)”, the FIC index [2, 16] was 0.515 and the Interaction [2, 16] was “Synergistic (Combinations that gave FIC indices less than 1 were designated “synergistic”)”. The FIC index [2, 21] was 0.187, the Interaction [2, 21] was “Synergistic (Combinations that gave FIC indices less than 1 were designated “synergistic”)” and the FIC [2, 17] was 0.031. For the same molecule, the FIC [2, 18] was 0.25, the FIC [2, 19] was 0.125 and the FIC ([2]; combination antifungal + propylene glycol monocaprylate) was 0.25. It also gave an FIC [2, 20] of 0.5 and an FIC ([2]; combination antifungal + undecylenic acid) of 0.125.

For `CCCCCCCCCC(=O)O` [capric acid], the “growth of M. furfur on culture media containing the fatty acid/ester or oil” value [4] was “no growth”.

For `CCCCCCCC/C=C\CCCCCCCC(=O)OCC` [ethyl oleate], the “growth of M. furfur on culture media containing the fatty acid/ester or oil” value [4] was “confluent growth”.

`CCCCC/C=C\C/C=C\CCCCCCCC(=O)O` [linoleic acid] was tested, and the “growth of M. furfur on culture media containing the fatty acid/ester or oil” value [4] was “confluent growth”.

For `CCCCCCCC/C=C\CCCCCCCC(=O)O` [oleic acid], the “growth of M. furfur on culture media containing the fatty acid/ester or oil” value [4] was “confluent growth”.

`CCCCCCCCCCCCCCCC(=O)O` [palmitic acid] was tested, and the “growth of M. furfur on culture media containing the fatty acid/ester or oil” value [4] was “confluent growth”.
